In patent publication US12180084B2, “Cerium (III) carbonate formulations” (THE REGENTS OF THE UNIVERSITY OF CALIFORNIA, priority 2019, dated 2024):

What was measured:
[1] = CR dye photodegradation in TiO2-based sunscreen film (Neutrogena Broad Spectrum Mineral Sunscreen SPF 60+); conditions: 3.0 wt. % added agent relative to sunscreen weight
Experimental: Films on filter paper were fabricated and photoreactor experiments were conducted exactly the same way as described in Example 7.3, using CR dye, except UV irradiation in the photoreactor was conducted for a period of 4 h. These films contained either no UV-protecting agent, 3.0 wt. % of Ce2(CO3)3·6H2O that was synthesized according to Example 3, 3.0 wt. % of commercial Ce2(CO3)3·xH2O (Acros Organics), or 3.0 wt. % of ZnO (NANOBYK-3840). […] Upon adding 3 wt. % of Ce2(CO3)3·6H2O synthesized according to Example 3 to the sunscreen formulation, a decrease in the amount of CR dye photodegradation to 15±1% is observed. […] When cerium carbonate consisting of Ce2(CO3)3·xH2O from Acros Organics is instead used in place of Ce2(CO3)3·6H2O synthesized according to Example 3, photoprotection with 24±2% CR dye photodegradation is observed. The properties of Ce2(CO3)3·xH2O from Acros Organics have been ascribed in Example 4, and these aspects are borne out in conjunction with sunscreen-based formulations here as well. When instead of cerium carbonate ZnO (NANOBYK-3840) is used as a UV-protecting agent, less effect on CR dye photodegradation is observed. This is a similar outcome to observations with MB dye and ZnO-based sunscreen formulation in Example 7.2.
The amount of Ce2(CO3)3·6H2O synthesized according to Example 3 that was incorporated into the TiO2-based sunscreen was increased to 5.0 wt. %, and results are shown in FIGS. 23A-23B and are summarized in Table 4. […] There is a slight diminishing return for adding Ce2(CO3)3·6H2O both here and in Example 7.2, but the effect of increasing Ce2(CO3)3·6H2O on organic-molecule photoprotection is much more pronounced than in the case of ZnO.

[2] = CR organic dye photodegradation in dried acrylic paint film under sunlight; conditions: 6 h sunlight
Description: To investigate the effectiveness of this approach in a dry (solid) composition, Congo Red (CR) organic dye at a concentration of 3×10^−5 M was incorporated into a waterborne acrylic paint formulation dispersion, together with P25 photocatalyst (10 wt % relative to the Ti-Pure R706 pigment weight used in the dispersion).
A composition was made with 16% Ce (III)-R706 pigment volume concentration comprising CR organic dye (the pigment volume concentration is defined as the volume percentage of solid particles in the system after formation of the composition (e.g., excluding water). This was performed by first preparing a 75 wt % aqueous slurry of Ce (III)-R706 pigment by high shear mixing in presence of 0.3 wt % TAMOL™ 1124 with respect to the weight of pigment. 4.64 g of this slurry was incorporated in 12.78 g of acrylic-based BP 8164 polymer (obtained from the Dow Chemical Company), to which was added 1.966 mL of 3.5×10^−4 M CR aqueous dye solution, and 10 wt % P25 photocatalyst (with respect to pigment weight). The resulting dispersion was mixed under high-shear conditions in a high speed mixer.
Thereafter, 0.6 g of 2020E thickener (a non-ionic urethane rheology modifier) was added into the slurry, and the resulting dispersion was mixed under high-shear conditions in a high-speed mixer, to obtain the final formulation dispersion. The solid (dried) film coating was prepared with a 3 mil (1 mil=0.001 inch) bar applicator on a polyacrylic substrate and dried for 48 h prior to conducting the photocatalysis experiments. During photocatalysis, all the coatings were exposed to sunlight (under similar conditions) for an exposure period of 6 hours. Prior to sunlight exposure, 100 mg of the coating was scraped off with a sharp blade, and was extracted in 1.5 mL of absolute ethanol for UV-visible spectroscopy analysis, to obtain a datum of CR organic dye concentration in the film prior to photocatalysis. Similarly, another 100 mg portion of coating scraped off and extracted after 6 hours of sunlight exposure, and the percentage of dye degradation was calculated by UV-visible spectrophotometry.
To investigate the photopassivation effectiveness of a separate cerium (III) compound in a dry (solid) paint film coating, insoluble cerium (III) carbonate particles and CR organic dye at a concentration of 3×10^−5 M were incorporated into a waterborne acrylic paint formulation dispersion, using either Ti-Pure-R706 or the same rutile TiO2 used in Example 1 as the pigment, and assessed the rate of dye photodegradation relative to an identical dispersion, in the absence of cerium (III) carbonate particles.
The composition of this dispersion, and the procedure for synthesizing the dried coating film is described in the paragraph below. […]

[3] = MB dye photodecomposition under 254 nm light in the absence of any added photocatalyst; conditions: 1 mg in 10 mL 10^−5 M MB, up to 60 min, no photocatalyst
Description: Though photocatalysis increases photodecomposition of organics, thought to be mediated by generation of reactive oxygen species (ROS), organic molecules have their own absorptivity of light due to presence of light-absorbing chemical substituents. This absorptivity of light can itself produce radicals in water, which even in the absence of a photocatalyst per se, can ultimately lead to photodegradation/decomposition of organics. Here it was investigated whether it was possible to reduce the inherent photodecomposition/degradation of methylene blue (MB) dye under exposure to 254 nm light, by using cerium (III) carbonate, in the absence of any added photocatalyst.
Two separate sets of photoreactions were performed: (1) 10 mL aqueous solution of 10^−5 M MB dye was exposed to 254 nm light under a photoreactor setup for a duration of up to 60 min and (2) 1 mg Ce2(CO3)3·4H2O that was synthesized according to the procedure described in Example 3 was dispersed in a 10 mL aqueous solution of 10^−5 M MB dye, and the resulting slurry was exposed to 254 nm light under photoreactor setup for a duration of up to 60 min.

[4] = MB organic dye photodegradation in aqueous slurry with P25 photocatalyst under 254 nm light; conditions: 1 mg Ce2(CO3)3·4H2O versus 11.4 mg Ce (III)-R706, 2 mg P25

Molecule	% of CR dye photodegradation after 4 h of UV irradiation in photoreactor ([1]; listed as Ce2(CO3)3·xH2O from Acros Organics) [%]	% of CR dye photodegradation after 4 h of UV irradiation in photoreactor ([1]; listed as Commercial Ce2(CO3)3•xH2O (Acros Organics)) [%]	photodegradation of CR organic dye in dried paint film ([2]; Ti-Pure R706 pigment, 2 wt. % cerium (III) carbonate relative to pigment) [%]	photodegradation of CR organic dye in dried paint film ([2]; Ti-Pure R706 pigment, 5 wt. % cerium (III) carbonate relative to pigment) [%]	photodegradation of CR organic dye in dried paint film ([2]; rutile TiO2 pigment, 2 wt % cerium (III) carbonate relative to pigment) [%]	photodegradation of CR organic dye in dried paint film ([2]; rutile TiO2 pigment, 5 wt % cerium (III) carbonate relative to pigment)	fold decreased rate of MB dye photodecomposition compared to control MB solution [3] [fold]	fold lower rate constant than with the same amount of cerium as Ce (III)-R706 [4] [fold]
Ce2(CO3)3·xH2O [Ce2(CO3)3·xH2O (ACROS Organics)]	24±2	24 ± 2						
O=C([O-])[O-].O=C([O-])[O-].O=C([O-])[O-].[Ce+3].[Ce+3] [Ce2(CO3)3·4H2O]			29	12	20	did not show any detectable CR dye photodegradation	~40	1.5
